Measured values from the NIST ThermoML archive (doi:10.1016/j.jct.2009.08.004).
± gives the expanded uncertainty stated by the source.

Test: mn = molality of the nth substance listed, in mol/kg
Conditions: 298.15 K, 101 kPa, Liquid, Pulse-echo method

speed of sound (m1 = 0.02692): 1499.5 ± 0.77 m/s | speed of sound (m1 = 0.03696): 1500.6 ± 0.77 m/s | speed of sound (m1 = 0.04335): 1501.3 ± 0.77 m/s | speed of sound (m1 = 0.05037): 1502 ± 0.77 m/s | speed of sound (m1 = 0.06228): 1503.2 ± 0.77 m/s
Compound: NCC(=O)N[C@@H](CO)C(=O)NCC(=O)O [glycyl-L-serylglycine] + O
